Laboratory results taken from ChEMBL document CHEMBL5661955, “ASAP - In vitro cytotoxicity” (2024).
Where “and” joins values, the source holds several entries; their conditions need not be identical. Equal values may be shown once.

Assays:
[1] = Functional CPE-based assay to measure dose dependent changes in cell viability from drug treatment in Vero E6 miRFP670 cells (cotreated with P-gp inhibitor, CP100356). Cells are treated with antiviral candidates that have been serially diluted. Cytotoxicity is reported via analysis of MTS assays in uninfected cells. The assay has been performed by KU Leuven.; format: toxicity, Vero C1008; settings: chlorocebus sabaeus, p-gp concentration 500 nM
[2] = Functional metabolic assay to measure dose dependent changes in cell viability from drug treatment in Vero E6/TMPRSS2 cells (cotreated with P-gp inhibitor, Elacridar). […] Cytotoxicity is reported via measuring absorbance and analysis of MTT/MTS assays in uninfected cells. The assay has been performed by Icahn School of Medicine at Mount Sinai.; format: toxicity, cell-based, VeroE6/TMPRSS2; settings: chlorocebus sabaeus, p-gp concentration 2 uM; for CC50: Vero E6/TMPRSS2 cells, with Elacridar (P-gp inhibitor, concentration not stated); for CC10: veroe6/tmprss2
[3] = Functional assay to measure dose dependent changes in cell viability from drug treatment in Vero E6 miRFP670 cells (cotreated with P-gp inhibitor, CP100356) that are infected with Dengue virus type 2 New Guinea C. […] Cytotoxicity is reported via via analysis of DAPI count using high-content imager. The assay has been performed by KU Leuven.; format: toxicity, cell-based, Vero C1008; settings: chlorocebus sabaeus, p-gp concentration 500 nM
[4] = Vero E6 miRFP670 cells, with CP100356 (P-gp inhibitor, concentration not stated)
[5] = with CP100356 (P-gp inhibitor, concentration not stated)

Row | Compound | CC50 [1, 4] | CC50 [2] | CC10 [2] | CC50 [3, 5] | CC50 ([1]; vero c1008) | CC50 ([3]; vero c1008)
1 | Cn1cc(CCc2nc3c(C(=O)Nc4ccc5c(c4)CNC5)cc(Cl)cc3[nH]2)cn1 | > 50 µM | > 50 µM | 17.311 µM | > 50 µM | – | –
2 | O=C(Nc1ccc2c(c1)CNC2)c1cc(C(F)(F)F)cc2[nH]ccc12 | > 50 µM | > 50 µM | > 50 µM | > 50 µM | – | –
3 | N[C@H]1Cc2ccc(NC(=O)c3cc(Cl)cc4[nH]ncc34)cc2C1 | > 50 µM | > 50 µM | > 50 µM | > 50 µM | – | –
4 | CCc1cc(C(=O)Nc2cccc(-c3nnn[nH]3)c2)sc1-c1ccc(Cl)cc1 | 38.6 µM | > 50 µM | > 50 µM | > 50 µM | – | –
5 | Cc1ccc(NC(=O)c2cc(Cl)cc3[nH]ncc23)cc1CN | > 50 µM | > 50 µM | 0.133 µM | > 50 µM | – | –
6 | N#CCCNC(=O)[C@H](Nc1ccc2c(c1)CNC2)c1cc(Cl)cc(C2CC2)c1 | > 50 µM | > 50 µM | > 50 µM | 24.2 µM | – | –
7 | O=C(Nc1ccc2c(c1)CCNCC2)c1cc(Cl)cc2[nH]ncc12 | > 50 µM | 44.2 µM | 7.014 µM | > 50 µM | – | –
8 | O=C(NC1CCOCC1)[C@H](Nc1ccc2c(c1)CNC2)c1cc(Cl)cc(C2CC2)c1 | 49.9 µM | > 50 µM | > 50 µM | > 50 µM | – | –
9 | O=C(Nc1ccc2c(c1)CNC2)c1cc(F)cc2[nH]nnc12 | > 50 µM | > 50 µM | > 50 µM | > 50 µM | – | –
10 | Nc1cc(Cl)cc(C(=O)Nc2ccc3c(c2)CNC3)c1N | > 50 µM | > 50 µM | < 0.023 µM | > 50 µM | – | –
11 | COC(=O)CNC(=O)[C@H](Nc1ccc2c(c1)CNC2)c1cc(Cl)cc(C2CC2)c1 | > 50 µM | > 50 µM | – | 2.05 µM | – | –
12 | Cc1c(C(=O)Nc2cc([C@H]3CCOC3)ccn2)cc(C2CC2)n1C | – | > 50 µM | > 50 µM | > 50 µM | 9.14 µM and > 50 µM | 29.2 µM
13 | O=C(Nc1ccc2c(c1)CNC2)c1cc(Br)cc2[nH]c([C@H]3CCOC3)nc12 | 5.11 µM | 26.1 µM | 0.852 µM | 3.68 µM | – | –
14 | O=C(NCc1ccc(F)cc1)[C@H](Nc1ccc2c(c1)CNC2)c1cc(Cl)cc2[nH]ncc12 | > 50 µM | – | > 50 µM | > 50 µM | – | –
15 | Cn1cc2cc(Cl)cc(C(=O)Nc3ccc4c(c3)CNC4)c2n1 | 2.75 µM | > 50 µM | > 50 µM | 3.58 µM | – | –
16 | COCCNC(=O)[C@H](Nc1ccc2c(c1)CNC2)c1cc(Cl)cc(C2CC2)c1 | > 50 µM | > 50 µM | > 50 µM | > 50 µM | – | –
17 | O=C(Nc1ccc2c(c1)CNC2)c1cc(Br)cc2[nH]ncc12 | > 50 µM | > 50 µM | > 50 µM | > 50 µM | – | –
18 | CNC(=O)[C@H](Nc1ccc2c(c1)CNC2)c1cc(Cl)cc(C2CC2)c1 | > 50 µM | > 50 µM | > 50 µM | > 50 µM | – | –
19 | N#C[C@H](Nc1ccc2c(c1)CNC2)c1cc(Cl)cc(C2CC2)c1 | 46.5 µM | > 50 µM | > 50 µM | > 50 µM | – | –
20 | O=C(NCC(F)F)[C@H](Nc1ccc2c(c1)CNC2)c1cc(Cl)cc(C2CC2)c1 | > 50 µM | > 50 µM | – | – | 46.9 µM and 47.6 µM | > 50 µM and 21.1 µM and 27.1 µM
21 | Cc1cc(C(=O)Nc2ccc3c(c2)CNC3)c2cn[nH]c2c1 | > 50 µM | – | 24.901 µM and 9.914 µM | 24 µM | – | –
22 | O=C(Nc1ccc2c(c1)CNC2)c1cc(Cl)cc2ccncc12 | > 50 µM | > 50 µM | > 50 µM | > 50 µM | – | –
23 | Cc1c(C(=O)Nc2cc(-c3cccnc3)ccn2)cc(C2CC2)n1C | > 50 µM | > 50 µM | 13.062 µM | 18.9 µM | 40.1 µM | 11.9 µM
24 | N#Cc1cc(C(=O)Nc2ccc3c(c2)CNC3)cc(C(F)(F)F)c1 | > 50 µM | > 50 µM | > 50 µM | 0.739 µM | – | –

Row | Compound | CC50 [1, 4] | CC50 [2] | CC10 [2] | CC50 [3, 5] | CC50 ([1]; vero c1008) | CC50 ([3]; vero c1008)
25 | Cn1cc(CNC(=O)[C@H](Nc2ccc3c(c2)CNC3)c2cc(Cl)cc(C3CC3)c2)cn1 | > 50 µM | > 50 µM | – | > 50 µM | – | –
26 | O=C(NC[C@H]1CCCO1)[C@H](Nc1ccc2c(c1)CNC2)c1cc(Cl)cc2[nH]ncc12 | > 50 µM | > 50 µM | > 50 µM | > 50 µM | – | –
27 | CC(C)CNC(=O)[C@H](Nc1ccc2c(c1)CNC2)c1cc(Cl)cc2[nH]ncc12 | > 50 µM | – | – | 17 µM | – | –
28 | O=C(Nc1cc2c(c(-c3ccnnc3)c1)CNC2)c1cc(Cl)cc2[nH]ncc12 | > 50 µM | – | – | 25.8 µM | – | –
29 | O=C(Nc1ccc2c(c1)CNC2)c1cccc2nc(O)ccc12 | 36.5 µM | – | – | > 50 µM | – | –
30 | C=Cc1cc2c(cc1NC(=O)c1cc(F)cc3[nH]ncc13)CNC2 | > 50 µM | – | – | > 50 µM | – | –
31 | O=C(Nc1ccc2c(c1)CNC2)c1cc(F)cc2[nH]ncc12 | > 50 µM | > 50 µM | > 50 µM | > 50 µM | – | –
32 | O=C(Nc1ccc2c(c1)CNC2)c1cc(Br)cc2c1nc1n2CCCC1 | 0.847 µM | – | – | 1.27 µM | – | –
33 | O=C(Nc1ccc2c(c1)CNC2)c1cc(Cl)cc2c1NCCC2 | 6.83 µM | – | – | 24.8 µM | – | –
34 | N#Cc1cccc(-c2nc3c(C(=O)Nc4ccc5c(c4)CNC5)cc(F)cc3[nH]2)c1 | 29.2 µM | – | – | 20.7 µM | – | –
35 | COC(=O)c1cc(Br)cc2c(Cc3ccc(-c4nnn[nH]4)cc3)c[nH]c12 | 36.9 µM | – | – | 9.83 µM | – | –
36 | CCCNC(=O)[C@H](Nc1ccc2c(c1)CNC2)c1cc(Cl)cc2[nH]ncc12 | > 50 µM | – | – | 12.9 µM | – | –
37 | O=C(Nc1ccc2c(c1)CNC2)c1cc(Cl)cc2[nH]c(-c3ccc(F)cc3O)nc12 | 2.19 µM | – | – | 1.64 µM | – | –
38 | O=C(Nc1cc2c(cc1Br)CNC2)c1cc(Cl)cc2[nH]ncc12 | 1.85 µM | – | – | 13.5 µM | – | –
39 | N[C@H]1Cc2ccc(NC(=O)c3cccc4c3CC(=O)N4)cc2C1 | > 50 µM | – | – | > 50 µM | – | –
40 | CCOCCNC(=O)[C@H](Nc1ccc2c(c1)CNC2)c1cc(Cl)cc2[nH]ncc12 | > 50 µM | – | – | 9.94 µM | – | –
41 | O=C(Nc1ccc2c(c1)CNC2)c1cc(Cl)cc2c1cnn2C1CCC1 | 9.91 µM | – | – | 12.8 µM | – | –
42 | O=C1Cc2c(cccc2C(=O)Nc2ccc3c(c2)CCNCC3)N1 | > 50 µM | – | – | > 50 µM | – | –
43 | O=C(NCCC1CC1)[C@H](Nc1ccc2c(c1)CNC2)c1cc(Cl)cc(C2CC2)c1 | 11.8 µM | – | – | 16.7 µM | – | –
44 | CC1=C(c2cc(NC(=O)c3cc(Cl)cc4[nH]ncc34)cc3c2CNC3)CCC1=O | > 50 µM | – | – | > 50 µM | – | –
45 | C=CC[C@H]1NCc2cc(NC(=O)c3cc(F)cc4c3CC(=O)N4)ccc21 | > 50 µM | – | – | > 50 µM | – | –
46 | O=C(Nc1cc(Br)c2c(c1)CNC2)c1cc(F)cc2[nH]ncc12 | > 50 µM | – | – | > 50 µM | – | –
47 | O=C(Nc1ccc2c(c1)CNC2)c1cc(Cl)cc(N2CCCC2)c1 | 5.83 µM | – | – | 13.2 µM | – | –
48 | Cc1nc2c(C(=O)Nc3ccc4c(c3)CNC4)cc(Cl)cc2[nH]1 | 4.77 µM | – | – | 6.02 µM | – | –
